# Results as given in PubChem BioAssay AID1320 (NMMLSC, 2008).
# The source made the active and inactive calls. No rule for the calls is given here.
# Biological target: Bcl-2-related protein A1 (Homo sapiens) (UniProt Q16548)
# Assay: Bfl-1/Bim complex disruptors – biochemical, multiplexed, bead-based flow cytometry, dose response (AID 1320); as to percent span (inhibition): test concentration not given here
# Settings: Bim peptide-Bfl-1 binding, fluorescence
# Sequence of Bcl-2-related protein A1 (Homo sapiens) (Q16548 whole entry, looked up): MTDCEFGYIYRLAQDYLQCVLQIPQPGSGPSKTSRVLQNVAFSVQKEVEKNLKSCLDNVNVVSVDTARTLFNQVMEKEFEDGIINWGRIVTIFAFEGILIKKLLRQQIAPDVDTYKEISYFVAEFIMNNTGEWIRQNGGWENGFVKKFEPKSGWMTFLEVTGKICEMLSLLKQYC
row,Structure (SMILES),EC50
1,O=C(C1=NN(c2ccccc2)C2C(=O)N(c3ccccc3)C(=O)C12)c1ccccc1 (centres undefined),1360 nM
2,Cc1cccc(N2C(S)=C(C#N)C(=O)NC2c2cccs2)c1 (centres undefined),inactive

# Same assay, conditions: Bim peptide-Bfl-1 binding, fluorescence, active compounds read high
row,Structure (SMILES),percent span (inhibition)
1,CCOc1ncccc1C(=O)OC(C)C(=O)Nc1ccc(CC)cc1 (centres undefined),inactive
2,Cc1cc(-c2csc(N)n2)c(C)n1CCc1ccccc1,inactive
3,C=CCn1c(SCC(=O)Nc2ccc3c(c2)OCO3)nnc1-c1cc(Br)ccc1O,inactive
4,CCc1ccc(NC(=O)CC2NCCNC2=O)cc1 (centres undefined),inactive
5,COc1cc(/C=N/NC(=O)c2ccc([N+](=O)[O-])cc2Cl)cc(Br)c1O,inactive
6,CC(C)COC(=O)/C(C#N)=C/c1cn(Cc2ccccc2)c2ccccc12,inactive
7,O=C(COc1ccccc1)N1CCN(c2ncnc3c2cnn3-c2ccccc2)CC1,inactive
8,O=[N+]([O-])c1cccc(S(=O)(=O)NCC2CCCO2)c1 (centres undefined),inactive
9,CN(/N=C/C=C/c1ccccc1)C1=NS(=O)(=O)c2ccccc21,inactive
10,O=[N+]([O-])c1ccc2[nH]nc(-c3ccccc3)c2c1,inactive
11,CC1Nc2ccccc2C(=O)N1NS(C)(=O)=O (centres undefined),inactive
12,CCOc1ccccc1NC(=O)CSc1nnc2ccc(-c3cccnc3)nn12,inactive
13,Oc1ccc(C=NCC2COc3ccccc3O2)cc1 (centres undefined),inactive
14,Cc1nn(-c2ccc(Cl)cc2)c(Cl)c1/C=C(\C#N)C(N)=O,inactive
15,COc1ccccc1Cn1nnc2c(=O)[nH]c(C3CCN(C(=O)c4ccc(C)cc4)CC3)nc21,inactive
16,O=C(N/N=C/c1cccc([N+](=O)[O-])c1)c1cccs1,inactive
17,CCOC(=O)c1snc(-c2ccc(F)cc2)c1N,inactive
18,CCn1cc(C=C2C(=O)c3ccccc3C2=O)c2ccccc21,inactive
19,COc1cccc(NC(=O)CSc2nncn2N)c1,inactive
20,COCc1cc(CN2CCCC(CNC(=O)c3ccc(F)cc3)C2)ccc1OC (centres undefined),inactive
21,O=C(NCCc1ccccc1)c1ccc2nc(-c3ccco3)c(-c3ccco3)nc2c1,inactive
22,O=C(O)c1ccc(NS(=O)(=O)c2ccc3c(c2)C(=O)c2ccccc2C3=O)cc1,inactive
23,CN1CCS/C1=C/C=C1/SC(=S)N(Cc2ccccc2)C1=O,inactive
24,COc1ccc(C2(NC(C)=O)CCN(C(=O)c3ccco3)CC2)cc1,inactive
25,CCn1c(C)c(/C=N/Nc2nc3ccccc3s2)c2ccccc21,inactive

row,Structure (SMILES),percent span (inhibition)
1,O=C(Cc1ccccc1)N/N=C/c1cccn1-c1ccc([N+](=O)[O-])cc1,inactive
2,COC(=O)c1cc(OC)c(OC)cc1NC(=O)Nc1cccc(C(C)=O)c1,inactive
3,CCOc1ccccc1-n1c(=O)c2ccccc2c2ccccc2c1=O,inactive
4,CCOC(=O)/C(=C\c1ccc(Cl)cc1)c1nc2sc(C)c(C)c2c(=O)[nH]1,inactive
5,C#CCOCCOCCOCCNc1nc(N2CCN(C(=O)[C@H](CCCCN)n3cc(CCCC)nn3)CC2)nc(N2CCN(C(=O)[C@H](Cc3ccc(O)cc3)n3cc(CCO)nn3)CC2)n1,inactive
6,COc1ccc2cc(CN(CCc3ccccc3)Cc3nnnn3CC3CCCO3)c(=O)[nH]c2c1 (centres undefined),inactive
7,O=C(c1cnccn1)N(Cc1cccs1)C1(C(=O)NC2CCCCC2)CCCCC1,inactive
8,Cc1cc(NC(=O)CCSc2ccccc2)ccc1Br,inactive
9,COc1cc(NC(=S)NC(=O)c2cc(C)cc(C)c2)ccc1NC(=O)c1cccs1,inactive
10,O=C(Nc1ccc(Cl)cn1)Nc1ccccc1F,inactive
11,Cc1ccc(-c2cc(C(=O)Nc3ccccn3)c3ccccc3n2)o1,inactive
12,OC(COc1ccc2cc(Br)ccc2c1)CN1CCOCC1 (centres undefined),inactive
13,CCC(=O)NC(c1ccc(C)cc1)c1cc([N+](=O)[O-])c2cccnc2c1O (centres undefined),inactive
14,COc1ccc(C(=O)NC(=S)N2CCNC(=O)C2)cc1Br,inactive
15,Cc1sc2nc(C(C)C)nc(SCC(=O)N3c4ccccc4CC3C)c2c1C (centres undefined),inactive
16,O=C1NC(=O)C2(Cc3c(nc4ccccn4c3=O)N3CCCCCC32)C(=O)N1Cc1ccccc1 (centres undefined),inactive
17,O=C(/C=C/c1c(F)cccc1Cl)Nc1ccncc1,inactive
18,COc1c(C)cc(Br)cc1C(=O)Nc1ccc(S(N)(=O)=O)cc1,inactive
19,CN(C)S(=O)(=O)N(CC(=O)Nc1ccccc1C(F)(F)F)c1ccccc1,inactive
20,CNC(=O)c1sc(-c2ccccn2)nc1C,inactive
21,COc1ccc2nc(C)cc(SCC(=O)N/N=C/c3ccc(O)c(O)c3)c2c1,inactive
22,Cn1c(CNc2nc(-c3ccccc3)cs2)nnc1SCC(=O)N1CCc2ccccc21,inactive
23,O=C(/C=C/c1ccc(-c2ccccc2[N+](=O)[O-])o1)c1ccc(F)cc1,inactive
24,C1=CC2c3ccccc3NC(c3ccncc3)C2C1 (centres undefined),inactive
25,Nc1ccc(-c2cn3cccnc3n2)cc1,inactive

row,Structure (SMILES),percent span (inhibition)
1,O=C(O)CC1S/C(=N/N=C/C=C/c2ccccc2[N+](=O)[O-])NC1=O (centres undefined),inactive
2,Cc1ccccc1OCC(=O)N/N=C/c1ccccn1,inactive
3,O=C(Nc1ccccn1)c1cc2ccccc2o1,inactive
4,CC(=O)NC(=O)Nc1sc(=S)n(C)c1C,inactive
5,COc1ccc(OC)c(Nc2ccc(C(=O)O)cc2[N+](=O)[O-])c1,inactive
6,COC(=O)/C(=C/c1ccc(F)cc1)NC(C)=O,inactive
7,CCOC(=O)c1ccc(Nc2nc(C(=O)OCC)nc3ccccc23)cc1,inactive
8,NC(=O)c1c(NC(=O)C2CCCO2)sc2c1CCCCC2 (centres undefined),inactive
9,Cc1cccc(-n2c(O)c(/C=N/N3CCOCC3)c(=O)[nH]c2=S)c1,inactive
10,Cc1cc2nc(/C(C#N)=C/c3ccncc3)[nH]c2cc1C,inactive
11,COC(=O)CCC(=O)Nc1sc(C)c(C)c1C(N)=O,inactive
12,Cc1ccc(/C=N/N(C)C2=NS(=O)(=O)c3ccccc32)o1,inactive
13,Cc1cc(N2CCN(C)CC2)nc2ccc(NC(=S)N3CCCCC3)cc12,inactive
14,CCN(CC)c1ccc(NC(=O)COc2ccccc2C)cc1S(=O)(=O)Nc1ccccc1OC,inactive
15,COc1ccc(COC(=O)NNC(=O)c2ccccc2Cl)cc1,inactive
16,O=C(CCCN1C(=O)c2cccc3cccc(c23)C1=O)N1CCN(c2ccccn2)CC1,inactive
17,COc1ccc(S(=O)(=O)NCCSc2ccccc2)cc1OC,inactive
18,Cc1onc(-c2ccccc2Cl)c1C(=O)Nc1nn[nH]n1,inactive
19,O=C(COc1ccccc1Br)NCc1ccccn1,inactive
20,Cc1ccc(C2=N/C(=C/c3cccs3)C(=O)N2Nc2ccccc2)cc1,inactive
21,NC(=O)CSc1nnc(Cn2cnc3ccccc32)o1,inactive
22,Cc1cc(C)c2nc3nc(C)cc(C)c3c(N)c2c1,inactive
23,Cc1ccc(N=Cc2c(O)n(-c3ccc4c(c3)OCO4)c(=O)c3ccccc23)cc1,inactive
24,COc1ccc(N2CCN(C(=O)c3cc(=O)[nH]c4ccccc34)CC2)cc1,inactive
25,COC(=O)Cc1ccc(NC(=S)N2CCN(c3cccc(O)c3)CC2)cc1,inactive

row,Structure (SMILES),percent span (inhibition)
1,COC(=O)Cc1cc(=O)[nH]c(Nc2nc3ccccc3o2)n1,inactive
2,COc1ccc(C(=O)Nc2ccc(NC(=O)c3cccs3)cc2)cc1Cl,inactive
3,Cc1ccc(C(=O)NNC(=O)c2ccc3ncccc3c2)cc1,inactive
4,Cc1ccc(Nc2nc(C)cs2)cc1,inactive
5,CCOc1ccc(NCc2ccccc2OCc2cccc(F)c2)cc1,inactive
6,CCN(CC)CCN(C(=O)c1ccc(N2C(=O)CCC2=O)cc1)c1nc2cc3c(cc2s1)OCCO3,inactive
7,Cn1cc(CN2C[C@]3(C)C[C@H]2CC(C)(C)C3)c(-c2ccc3c(c2)OCCO3)n1,inactive
8,Cc1ccc(NC(=S)N2CCn3cccc3C2c2cccnc2)cc1 (centres undefined),inactive
9,COc1ccccc1N(C)S(=O)(=O)c1ccc(C(=O)OCC(N)=O)cc1,inactive
10,COc1cc(C=Nc2cccc(C)c2)c(O)c([N+](=O)[O-])c1,inactive
11,O=C(c1cnccn1)N1CCN(c2ccccc2F)CC1,inactive
12,CCc1ccc(/C=C/C(=O)c2cc(Br)ccc(=O)c2O)cc1,inactive
13,CCN1CCN(c2cc(C)c3cc(NC(=S)N4CC(C)CC(C)C4)ccc3n2)CC1 (centres undefined),inactive
14,CC(C)CNC(=O)c1cccc(NC(=O)c2ccc(Cl)c([N+](=O)[O-])c2)c1,inactive
15,CCn1c(C)nc2cc(C(=O)N/N=C/c3ccc(O)c(O)c3O)ccc21,inactive
16,CCNC(=S)Nc1cc(OCC)c(NC(=O)c2cccs2)cc1OCC,inactive
17,c1ccc(-c2nnc(OCCN3CCOCC3)c3ccccc23)cc1,inactive
18,O=C(O)CC/C(=C\c1cc([N+](=O)[O-])ccc1Cl)c1nc2ccccc2s1,inactive
19,O=C(c1ccc(CNS(=O)(=O)c2ccc(Br)cc2)cc1)N1CCCC1,inactive
20,Cn1c(=O)c(C(=O)COC(=O)c2cc(-c3ccco3)nc3ccccc23)c(N)n(CC2CC2)c1=O,inactive
21,COc1ccc(C(=O)Nc2ccc(C(=O)OCC(=O)c3cccc4ccccc34)cc2)cc1,inactive
22,Cc1ccccc1-n1nc(SCC(=O)O)sc1=S,inactive
